# Results: PubChem BioAssay (NCI)
# Values joined by “and” are separate entries in the source; they are usually repeats but may differ in a detail not shown here. Identical values can stand only once.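 The compound was tested at five concentrations on cells cultured in 96-well plates, with a 48-hour exposure period. GI50 is the concentration that inhibits growth by half. TGI is the concentration that stops growth completely.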
# What was measured:
# Test in all cases: inhibition of tumour cell growth, NCI panel, 48 h
# [1] = tested on: HCT-15 colon
# [2] = tested on: MCF7 breast
# [3] = tested on: A498 renal
# [4] = tested on: UO-31 renal
# [5] = tested on: RPMI-8226 leukemia
# [6] = tested on: PC-3 prostate
# [7] = tested on: OVCAR-3 ovarian
# [8] = tested on: SN12C renal
# [9] = tested on: TK-10 renal
# [10] = tested on: SF-268 CNS
SMILES,GI50 [1],TGI [1],GI50 [2],TGI [2],GI50 [3],TGI [3],GI50 [4],TGI [4],GI50 [5],TGI [5],GI50 [6],TGI [6],GI50 [7],TGI [7],GI50 [8],TGI [8],GI50 [9],TGI [9],GI50 [10],TGI [10]
N/C(=N\N=C\c1ccc(-c2ccccc2)cc1)N[N+](=O)[O-],2.03 µM,> 100 µM,1.47 µM,> 100 µM,0.418 µM,7.58 µM,6.22 µM,> 100 µM,4.04 µM,> 100 µM,3.81 µM,> 100 µM,1.67 µM,9.5 µM,7.3 µM,> 100 µM,> 100 µM,> 100 µM,7.07 µM,> 100 µM
O=C1C=C(Br)c2c(-c3ccccc3)oc3cccc1c23,,> 87.1 µM,,> 100 µM,,> 100 µM,,> 100 µM,,> 79 µM,,> 100 µM,,> 100 µM,,> 100 µM,,82.1 µM,,> 81.6 µM
O=C(N/N=C/c1ccc2c(c1)CCC2)c1ccccc1O,,69.6 µM,,34 µM,,36.8 µM,,94.6 µM,,> 100 µM,,53.4 µM,,41.5 µM,,62.7 µM,,51.1 µM,,74.7 µM
C[C@]12CCC3[C@@H](CC[C@@H]4c5nonc5CC[C@]34C)C1CCC(=O)N2 (stereo partly drawn),,> 100 µM,> 100 µM,> 100 µM,> 88.8 µM,> 100 µM,,> 100 µM,,> 100 µM,68.3 µM,> 100 µM,,> 100 µM,,> 100 µM,,> 100 µM,,> 100 µM
Nc1ncnc2[nH]ncc12,0.281 µM,> 100 µM,0.435 µM,> 100 µM,0.853 µM,20.4 µM,0.232 µM,0.916 µM,0.378 µM,14.3 µM,0.526 µM,> 55.7 µM,0.863 µM,4.38 µM,1.3 µM,> 100 µM,0.589 µM,> 47.6 µM,4.19 µM,> 100 µM
COc1ccc2cc(-c3ccoc(=O)c3-c3cc(OC)c(OC)c(OC)c3)ccc2c1,0.059 µM,> 100 µM,0.0322 µM,> 57.5 µM,0.0723 µM,,0.1 µM,> 100 µM,0.218 µM,13.4 µM,0.0521 µM,> 100 µM,0.0316 µM,> 100 µM,0.639 µM,> 100 µM,,> 100 µM,0.626 µM,> 100 µM
COC(=O)C(Cc1ccccc1)NC(=O)NC(=O)NC(=O)CI (stereo not drawn),1.66 µM,3.13 µM,4.2 µM,28.5 µM,18.4 µM,33.2 µM,1.83 µM,3.44 µM,2.69 µM,7.71 µM,17.3 µM,33.1 µM,2.97 µM,8.89 µM,20.3 µM,53.3 µM,4.12 µM,14.7 µM,14.1 µM,30.4 µM
CCN1CCC(CCOC)(CN2c3ccccc3Sc3ccc(Cl)cc32)C1 (stereo not drawn),2.04 µM,4.26 µM,1.86 µM,3.54 µM,1.95 µM,7.39 µM,1.66 µM,3.63 µM,2.52 µM,5.7 µM,2.03 µM,4.74 µM,1.88 µM,4.1 µM,12 µM,28.2 µM,2.03 µM,3.67 µM,2.73 µM,8.67 µM
CN(C)c1ccc2c(c1)Sc1cc(N(C)C)ccc1N2C(=O)c1ccccc1,59.2 µM,> 100 µM,37 µM,> 100 µM,32.3 µM,> 100 µM,8.23 µM,> 100 µM,76.1 µM,> 100 µM,12.9 µM,> 100 µM,25.7 µM,> 100 µM,> 100 µM,> 100 µM,,,30.3 µM,> 100 µM
CN(C)c1ccc(/C=C\c2cccc[n+]2C)cc1,92.8 µM,> 100 µM,4.52 µM,> 100 µM,2.53 µM,33.7 µM,6.43 µM,> 100 µM,4.44 µM,45.2 µM,3.04 µM,> 100 µM,3.3 µM,30.1 µM,17 µM,> 100 µM,41.1 µM,> 100 µM,5.52 µM,> 100 µM
O=C(O)C/C=C/CC(=O)O,,> 100 µM,,> 100 µM,,> 100 µM,,> 100 µM,,> 100 µM,,> 100 µM,,> 100 µM,,> 100 µM,,> 100 µM,,> 100 µM
C=CC(=O)N(C)[C@H]1C[C@H]2OC(C)(C1OC)n1c3ccccc3c3c4c(c5c6ccccc6n2c5c31)C(=O)NC4 (stereo partly drawn),0.099 µM,0.644 µM,0.123 µM,> 50 µM,0.0349 µM,0.182 µM,0.018 µM,0.0854 µM,0.103 µM,1.5 µM,0.182 µM,15.2 µM,0.16 µM,0.851 µM,0.0521 µM,0.931 µM,,,0.0599 µM,1.26 µM
O=[N+]([O-])c1cccc(-c2nc3sccn3c2-c2ccnc(NCCCNS(=O)(=O)c3cccc(F)c3)n2)c1,2.3 µM,12.3 µM,2.16 µM,8.48 µM,1.56 µM,30.5 µM,1.25 µM,9.04 µM,0.984 µM,4.18 µM,1.37 µM,6.62 µM,2.53 µM,11.9 µM,2.71 µM,44.8 µM,5.38 µM,52 µM,3.21 µM,21.9 µM
Cc1cc(N/N=C/c2nc(-c3ccc(Br)cc3)oc2C)c2cc(Cl)ccc2n1,> 100 µM,> 100 µM,> 100 µM,> 100 µM,> 100 µM,> 100 µM,> 100 µM,> 100 µM,> 100 µM,> 100 µM,> 100 µM,> 100 µM,> 100 µM,> 100 µM,> 100 µM,> 100 µM,> 100 µM,> 100 µM,> 100 µM,> 100 µM
O=c1[nH]c2ccccc2nc1-c1c[nH]c2ccccc12,> 100 µM,> 100 µM,93.4 µM,> 100 µM,7.4 µM,> 100 µM,0.725 µM,> 100 µM,> 100 µM,> 100 µM,> 100 µM,> 100 µM,9.57 µM,> 100 µM,> 100 µM,> 100 µM,> 100 µM,> 100 µM,> 100 µM,> 100 µM
CC(C)CC(CC1=CCC2CC1C2(C)C)C1=C(O)C(C)(C)C(=O)C(C)(C)C1=O (stereo not drawn),0.35 µM,5.18 µM,0.303 µM,> 100 µM,0.236 µM,0.651 µM,0.272 µM,2.4 µM,0.227 µM,0.558 µM,0.318 µM,> 100 µM,0.359 µM,> 100 µM,0.324 µM,> 100 µM,0.424 µM,98.9 µM,0.354 µM,> 100 µM
N#C/C(=C\c1c(-c2ccccc2)[nH]c2ccccc12)S(=O)(=O)c1ccccc1,1.07 µM,34.6 µM,2.15 µM,18.4 µM,7.6 µM,> 58.7 µM,6.54 µM,> 61.7 µM,0.557 µM,6.88 µM,3.34 µM,> 53.9 µM,1.14 µM,4.41 µM,5.24 µM,71.8 µM,5.08 µM,> 54.3 µM,3.4 µM,20.5 µM
COC(=O)Cn1c2c(c3c(O)cccc31)C(=O)c1ccccc1-2,> 100 µM,> 100 µM,> 100 µM,> 100 µM,> 100 µM,> 100 µM,> 100 µM,> 100 µM,> 100 µM,> 100 µM,> 100 µM,> 100 µM,> 100 µM,> 100 µM,> 100 µM,> 100 µM,45.4 µM,> 100 µM,> 100 µM,> 100 µM
CN(C)CCCN1c2ccccc2CCc2ccc(Cl)cc21,3.35 µM,12.1 µM,1.76 µM,3.66 µM,5.47 µM,19.4 µM,5.17 µM,19.7 µM,2.62 µM,8.26 µM,2.98 µM,15.4 µM,9.17 µM,23.1 µM,3.26 µM,16.3 µM,13.3 µM,27.2 µM,4.92 µM,18.2 µM
CC1=C(CCC(C)N(C)Cc2ccc(OCCCN3CCCC3)cc2)C(C)(C)CCC1 (stereo not drawn),1.42 µM,4.8 µM,1.63 µM,3.65 µM,10.4 µM,22.7 µM,3.2 µM,13.3 µM,2.9 µM,8.65 µM,3.28 µM,14.1 µM,5.72 µM,19.3 µM,11 µM,24.8 µM,12.5 µM,26.7 µM,4.07 µM,17.5 µM
COc1ccc(C(OCC2OC(n3ccc(NC(=O)c4ccccc4)nc3=O)C(O)C2O)(c2ccccc2)c2ccccc2)cc1 (stereo not drawn),,3.87 µM,,4.26 µM,,2.97 µM,,11.4 µM,,4.64 µM,,8.28 µM,,3.15 µM,,3.2 µM,,,,19.8 µM
Cc1ccc(C2=NOC3=c4ccccc4=CSC3=C2c2ccc([N+](=O)[O-])cc2)cc1,33.2 µM,> 100 µM,11.1 µM,88.8 µM,10.8 µM,26.9 µM,27.8 µM,> 100 µM,44.4 µM,> 100 µM,14.3 µM,65.3 µM,10 µM,41.9 µM,18.3 µM,> 100 µM,13 µM,40.3 µM,18.1 µM,46.7 µM
CS(=O)(=O)c1ccc(C(=O)Nc2ccc(Cl)c(-c3ccccn3)c2)c(Cl)c1,,> 100 µM and 21.2 µM,,> 100 µM and 14.9 µM,,> 100 µM and 46.3 µM,12.1 µM and 3.66 µM,> 42.6 µM and 27 µM,,> 100 µM and 10.6 µM,,> 100 µM and 33.7 µM,,,,> 100 µM and 51.3 µM,,> 100 µM and 34.7 µM,,> 100 µM and 66.5 µM
O=S(=O)(NCCNC/C=C/c1ccc(Br)cc1)c1cccc2cnccc12,11.2 µM and 11.4 µM,27.3 µM and 25.5 µM,8.98 µM and 9.53 µM,25.1 µM and 25.4 µM,8.86 µM and 11.8 µM,23.8 µM and 25.1 µM,4.8 µM and 5.17 µM,18.4 µM and 20.2 µM,5.2 µM and 12 µM,25.3 µM and 35.2 µM,7.18 µM and 11.2 µM,21.2 µM and 24.5 µM,12 µM and 14.2 µM,24.6 µM and 28.3 µM,7.25 µM and 14.6 µM,21 µM and 31.4 µM,5.92 µM and 10.3 µM,19.6 µM and 23 µM,8.14 µM and 11.1 µM,22.1 µM and 25.7 µM
CC(C)(C)c1ccc(OCCCCCCN2CCNCC2)cc1,3.04 µM,10 µM,3.03 µM,10.3 µM,9.44 µM,23.1 µM,12.2 µM,25.6 µM,2.5 µM,6.46 µM,8.28 µM,24.4 µM,7.38 µM,20.8 µM,11.7 µM,27.8 µM,13.9 µM,27.8 µM,10.7 µM,24.4 µM
CC(CN1CCN(CCOCCO)CC1)CN1c2ccccc2Sc2ccc(Cl)cc21 (stereo not drawn),1.85 µM,3.76 µM,2.64 µM,6.61 µM,1.78 µM,5.08 µM,3.3 µM,16.4 µM,2.19 µM,5.54 µM,2.6 µM,10.6 µM,3.62 µM,12.7 µM,3.86 µM,17.1 µM,2.31 µM,6.45 µM,4.87 µM,18.4 µM
CCCCCCCCCCCCCCCCCC(=O)OCC(COC1OC(COP(=O)(O)O)C(O)C(O)C1O)OC(=O)CCCCCCCCCCCCCCCCC (stereo not drawn),,14.4 µM,,17.1 µM,,12.5 µM,,,,23.1 µM,,14.3 µM,,16 µM,,14.1 µM,,17.6 µM,,17 µM
Clc1cc(Cl)c(OCC#CI)cc1Cl,5.02 µM,23.5 µM,1.69 µM,3.58 µM,13.7 µM,26.6 µM,,,2.27 µM,8.38 µM,12.7 µM,27.9 µM,1.85 µM,3.91 µM,10.1 µM,23 µM,3.45 µM,13.2 µM,11 µM,23.4 µM
